Experimental data: patent US20240383908A1, “SYNTHESIS AND APPLICATION OF PHOSPHATASE DEGRADER” (HINOVA PHARMACEUTICALS INC., priority 2021, published 2024)

Legend:
Format in all cases: cell-based
MV-411 cell line = assay: Inhibition of cell proliferation, MV-411 (CCK-8); settings: Homo sapiens, MV4-11, 120 h, MV411 cells, 5 days, read-out: Inhibition activity on the proliferation of different cell lines MV411 (IC50)
Method: • MV-411 cell line (COBIER, CBP-60522) • FBS (GEMINI, Cat. No. 900-108) • 0.01M PBS (Biosharp, Cat. No. 162262) • IMDM (Hyclone, Cat. No. SH30228.01) • Penicillin-Streptomycin (Gibco, Cat. No. 15140122) • DMSO (Sigma, Cat. No. D5879) • Cell counting kit-8 (Signalway Antibody, Cat. No. CP002) • Centrifuge Tube, 15 ml (Excell Bio, Cat. No. CS015-0001) • Cell Culture Dish, (WHB, Cat. No. CS016-0128) • 96-well cell culture cluster (Corning, Cat. No. 3599)
• (1) Cell culture medium: IMDM medium+10% FBS+1% Pen Strep; • (2) PBS buffer: PBS powder was dissolved in 2 L of ultrapure water and sterilized;
(§1) (1) MV-411 cells were cultured in the cell culture medium, and then well-growing cells were selected and inoculated in a 96-well plate at 80 μL/well, with 2×10^4 cells/well. The plate was incubated overnight in a 5% CO2 cell incubator at 37° C.
(§2) (2) 10 mM storage solution of each drug was prepared using dimethylsulfoxide (DMSO). The stock solution was diluted in a ratio of 1:3 with DMSO before use, and then the solution was serially diluted in a ratio of 1:3, to obtain 9 gradient concentrations. Each concentration was further diluted with the medium in a ratio of 1:200 (to ensure that the DMSO concentration in the culture system was 0.1%). Two wells were set for each concentration. 20 μL of each compound solution was added to the cell culture well (with a final concentration of 10 μM, 3.3 μM, 1.1 μM . . . ). The plate was gently shaken and mixed. Additionally, 3 negative control wells (only containing cells) and 3 blank control wells (only containing the medium) were included (6 wells were each added with 20 μL of DMSO diluted with the medium in a ratio of 1:200).
(§3) (1) After 5 days of cultivation, 10 μL of CCK-8 was added to each well, and then the plate was further cultured for 3 h at 37° C. in a 5% CO2 cell incubator.
(§4) (2) The absorbance (OD value) was measured at 450 nm with a multifunctional microplate reader. (3) The data were analyzed using the Dose-response-inhibition equation in GraphPad Prism8 software to obtain the IC50 value.

MIA Paca-2 = assay: Inhibition of cell proliferation, MIA Paca-2 (CCK-8); settings: Homo sapiens, MIA Paca-2 cells, read-out: Inhibition activity on the proliferation of different cell lines MIA Paca-2 (IC50)
Method: as §1, §2, §3, §4
(§5) Using a similar method, the IC50 value (nM) for the inhibitory activity of the compound according to the present invention against different cell lines was obtained, and the results are shown in Table 3 (++++: IC50>5 μM; +++: 1 μM<IC50<5 μM; ++: IC50<1 μM).

NCI-H358 = assay: Inhibition of cell proliferation, NCI-H358 (CCK-8); settings: Homo sapiens, NCI-H358 cells, read-out: Inhibition activity on the proliferation of different cell lines NCI-H358 (IC50)
Method: as §1, §2, §3, §4, §5

SHP2 protein = molecular target: T1, SHP2 protein (Homo sapiens, UniProt Q06124); assay: Degradation activity on SHP2 protein in NCI-H358 cells (Western blot, DC50); parameters: endogenous in cells; settings: read-out: Degradation activity for differenct cell lines NCI-H358 (DC50)
T1 sequence (Q06124 1-593): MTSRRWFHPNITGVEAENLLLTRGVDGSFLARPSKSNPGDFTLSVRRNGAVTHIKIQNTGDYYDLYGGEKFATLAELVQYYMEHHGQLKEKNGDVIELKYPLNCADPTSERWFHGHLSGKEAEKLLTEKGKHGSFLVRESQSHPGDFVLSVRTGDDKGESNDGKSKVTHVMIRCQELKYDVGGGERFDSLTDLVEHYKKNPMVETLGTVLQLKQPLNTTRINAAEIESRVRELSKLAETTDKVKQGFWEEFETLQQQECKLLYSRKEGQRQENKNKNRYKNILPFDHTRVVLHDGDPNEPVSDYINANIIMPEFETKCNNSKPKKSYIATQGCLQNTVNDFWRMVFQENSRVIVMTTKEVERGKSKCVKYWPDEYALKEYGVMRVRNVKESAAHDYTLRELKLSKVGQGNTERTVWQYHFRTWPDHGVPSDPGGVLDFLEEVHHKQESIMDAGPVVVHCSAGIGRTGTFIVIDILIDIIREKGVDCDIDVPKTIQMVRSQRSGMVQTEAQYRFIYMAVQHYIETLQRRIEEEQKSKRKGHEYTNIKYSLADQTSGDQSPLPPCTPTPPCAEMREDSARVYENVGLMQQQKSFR
Outline: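 Cells were treated 24 h at 37 °C with compound (0.1–100 nM final, 0.1% DMSO). SHP2 was measured by Western blot with GAPDH as loading control, densitometry normalized to DMSO (100%). DC50, the concentration giving 50% degradation, came from a dose-response fit.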

KYSE 520 = assay: Inhibition of cell proliferation, KYSE 520 (CCK-8); settings: Homo sapiens, KYSE 520 cells, read-out: Inhibition activity on the proliferation of different cell lines KYSE 520 (IC50)
Method: as §1, §2, §3, §4, §5

SMILES	IC50 (MV-411 cell line) [nM]	IC50 (MIA Paca-2) [nM]	IC50 (NCI-H358) [nM]	DC50 (SHP2 protein) [nM]	IC50 (KYSE 520) [nM]
CC1(N)CCN(c2cnc(Sc3cccc(NC(=O)CCCCCCCCN4CCN(c5ccc(C(=O)NCc6ccc7c(c6)CN(C6CCC(=O)NC6=O)C7=O)nn5)CC4)c3)cn2)CC1 (stereo not shown) [Compound 63]	< 1000	1000 to 5000	< 1000	< 100	–
CC1(N)CCN(c2cnc(Sc3cccc(NC(=O)CCCCCCCCN4C5CCC4CN(c4ccc(C(=O)NCc6ccc7c(c6)CN(C6CCC(=O)NC6=O)C7=O)nn4)C5)c3)cn2)CC1 (stereo not shown) [Compound 119]	< 1000	1000 to 5000	< 1000	< 100	–
CCC1(N)CCN(c2cnc(Sc3cccc(NC(=O)CCCCCCN4CC5(CCN(c6ccc(C(=O)NCc7ccc8c(c7)CN(C7CCC(=O)NC7=O)C8=O)nn6)C5)C4)c3)cn2)CC1 (stereo not shown) [Compound 161]	< 1000	1000 to 5000	1000 to 5000	100 to 1000	–
NC1(CO)CCN(c2cnc(Sc3cccc(NC(=O)CCCCCCN4CC5(CCN(c6ccc(C(=O)NCc7ccc8c(c7)CN(C7CCC(=O)NC7=O)C8=O)nn6)C5)C4)c3)cn2)CC1 (stereo not shown) [Compound 168]	< 1000	1000 to 5000	1000 to 5000	100 to 1000	–
CC1(N)CCN(c2cnc(Sc3cccc(NC(=O)CCCCCCCCN4CCN(c5ccc(C(=O)NCc6ccc7c(c6)CN(C6CCC(=O)NC6=O)C7=O)nn5)CC4C(F)(F)F)c3)cn2)CC1 (stereo not shown) [Compound 174]	1000 to 5000	1000 to 5000	1000 to 5000	< 100	–
Cc1ncsc1-c1ccc([C@H](C)NC(=O)[C@@H]2C[C@@H](O)CN2C(=O)[C@@H](NC(=O)CCCCCCCCN2CCN(C(=O)CCC(=O)Nc3cccc(Sc4ncc(N5CCC(C)(N)CC5)nc4N)c3Cl)CC2)C(C)(C)C)cc1 [Compound 999]	< 1000	1000 to 5000	1000 to 5000	< 100	1000 to 5000
